The target in data set [1] is T1, Human immunodeficiency virus type 1 reverse transcriptase (Human immunodeficiency virus 1, UniProt Q72547). As to the kind of experiment: Inhibition of wild type HIV-1 reverse transcriptase.
Data set [2] can be described thus: Selectivity index, ratio of CC50 for human C8166 cells to EC50 for HIV1 3B infected in human C8166 cells. The format is toxicity, cell-based. To be noted: read-out: Selectivity Index.
The test system of data set [3] is Human immunodeficiency virus 1. As to the kind of experiment: Antiviral activity against HIV1 3B infected in human C8166 cells. The format is functional, organism-based.
Data set [4] deals with Human immunodeficiency virus 1. Kind of data set: Antiviral activity against HIV1 3B infected in human MT4 cells. The conditions noted are these: Human immunodeficiency virus 1, 3B. The format is functional, organism-based.
The test system of data set [5] is Human immunodeficiency virus. As to the kind of experiment: Antiviral activity against HIV. It counts as functional, organism-based. To be noted: Human immunodeficiency virus 1.
For data set [6], the system named is Human immunodeficiency virus 1. Kind of data set: Antiviral activity against wild type HIV1 3B infected in human MT4 cells using [3H]dGTP by radio-labelled binding assay. The format is functional, organism-based. To be noted: Human immunodeficiency virus 1, 3B.
Data set [7] has as its system Human immunodeficiency virus. As to the kind of experiment: Antiviral activity against HIV infected in human HeLa cells expressing CD4-LTR-beta-gal. The format is functional, organism-based. The conditions noted are these: Human immunodeficiency virus 1, HeLa.
For another data set, the system named is HeLa. Kind of data set: Cytotoxicity against human HeLa cells expressing CD4-LTR-beta-gal assessed as reduction in cell viability. It counts as functional.
The nature of data set [8]: Inhibition of HIV reverse transcriptase. Also noted: species or system Human immunodeficiency virus.
The next data set relates to C8166. As to the kind of experiment: Cytotoxicity against human C8166 cells assessed as reduction in cell viability. It counts as functional, cell-based.
Data set [9] has as its target T1, Human immunodeficiency virus type 1 reverse transcriptase. As to the kind of experiment: Inhibition of HIV-1 reverse transcriptase after 1 hr by ELISA.
The test system of data set [10] is TZM. As to the kind of experiment: Cytotoxicity against human TZM-bl cells. It counts as functional.
The subject of data set [11] is Human immunodeficiency virus 1. Kind of data set: Antiviral activity against wild type HIV1 3B infected in human TZM-bl cells. The format is functional, organism-based. The conditions noted are these: Human immunodeficiency virus 1, 3B.
Data set [12] deals with Human immunodeficiency virus 1. Kind of data set: Antiviral activity against HIV1. It counts as functional, organism-based.
The nature of data set [13]: Selectivity index, ratio of CC50 for human TZM-bl cells to EC50 for wild type HIV1 3B infected in human TZM-bl cells. The format is toxicity, cell-based. The conditions noted are these: read-out: Selectivity Index.
The subject of data set [14] is Human immunodeficiency virus 1. Kind of data set: Antiviral activity against wild type HIV1 3B infected in human TZM-bl cells after 4 days by ELISA. It counts as functional, organism-based. The conditions noted are these: Human immunodeficiency virus 1, 3B, 96 h.
The test system of data set [15] is Human immunodeficiency virus 1. Kind of data set: Antiviral activity against wild type HIV1. It counts as functional, organism-based.
The test system of data set [16] is TZM. Kind of data set: Cytotoxicity against human TZM-bl cells assessed as reduction in cell viability after 4 hrs by MTT assay. The format is functional.
Data set [17] relates to Human immunodeficiency virus 1. As to the kind of experiment: Antiviral activity against wild type HIV1 3B infected in human TZM-bl cells assessed as viral infection at 50 ug/ml after 1 hr relative to control. It counts as functional. The conditions noted are these: Human immunodeficiency virus 1, 3B.
Data set [18] relates to Human immunodeficiency virus 2. Kind of data set: Antiviral activity against HIV2 ROD after 48 hrs […]. The format is functional, organism-based. The conditions noted are these: Human immunodeficiency virus 2, ROD.
Data set [19] concerns Human immunodeficiency virus 1. Kind of data set: Antiviral activity against HIV1 3B after 48 hrs […]. The format is functional, organism-based. The conditions noted are these: Human immunodeficiency virus 1, 3B.
The mark [20] stands for this setting: Human immunodeficiency virus 1, 3B, C8166.

Structures are written as SMILES. ≈ marks a conversion by molar mass, not a printed value.

With `COC(=O)CCCC=C(c1cc(Cl)c(OC)c(C(=O)SC)c1)c1cc(Cl)c(OC)c(C(=O)SC)c1`, the EC50 in data set [1] came out at 1600 nM.
With `CC(C)c1c(CC2CCCCC2)nc(SCC(=O)c2ccccc2)[nH]c1=O`, the selectivity ratio in [2] lay in the range of 691 to 6.32e+06. In addition, the EC50 in data set [3] fell in the range of 0.012 to 101 nM.
Turning to `CC(C)c1c(CC2CCCCC2)nc(SCc2ccccc2)[nH]c1=O`, in data set [2], the selectivity ratio lay within 691 to 6.32e+06. The compound further had a 50% effective concentration (EC50) in data set [3] (setting [20]) of 0.025 nM.
`CCc1c(CC2CCCCC2)nc(SCC(=O)c2ccccc2)[nH]c1=O`: in data set [2], the selectivity ratio came to 6.32e+06. In addition, a half-maximal response in [3] (setting [20]) (EC50) required 0.012 nM.
Compound `Cc1cc(C)cc(S(=O)(=O)c2c(C(=O)NCc3ccncc3)[nH]c3ccc(Cl)cc23)c1` gave an EC50 in data set [4] of 2 nM. This counts as single-digit nanomolar.
In turn, `Cc1cc(C)cc(Cn2c(=O)cc(N)n(Cc3ccncc3)c2=O)c1` gave a concentration giving a half-maximal response (EC50) in data set [5] of 30 nM.
In [6], `Cc1cccc(N2C(=O)CSC2c2c(F)cccc2F)n1` (configuration not stated) showed an IC50 of 82 nM.
`O=C(O)/C(O)=C/C(=O)c1cn(Cc2ccc(F)cc2)c2cc(N3CCN(CCCCl)CC3)ccc2c1=O`: in data set [7], the IC50 is 50 nM. In addition, the CC50 in the data set on HeLa is above 50000 nM.
Consider `COc1ccc(N2CCN(C(=O)CN(Cc3ccccc3)c3ccc(Cl)cc3)CC2)cc1`, for which 77500 nM corresponded to half-maximal inhibition in [8] (IC50).
Take `O=C(CN(Cc1ccccc1)c1ccc(Cl)cc1)N1CCN(c2cccc(Cl)c2Cl)CC1`: in [8], inhibition was half-maximal at 12300 nM (IC50).
Consider `COc1ccccc1N1CCN(C(=O)CN(Cc2ccccc2)c2ccc(Cl)cc2)CC1`, for which the IC50 in data set [8] worked out at 16300 nM.
Still for that read-out and setting: the value for `O=C(CN(Cc1ccccc1)c1ccc(Cl)cc1)N1CCN(C(c2ccccc2)c2ccccc2)CC1` was above 100000 nM; that for `O=C(CN(Cc1ccccc1)c1ccc(Cl)cc1)N1CCN(c2ccc([N+](=O)[O-])cc2)CC1` was 14200 nM.
As to `COc1ccc2c(c1)CCCN2CCC(=O)N1CCN(c2cccc(Cl)c2)CC1`, the 50% inhibitory concentration (IC50) with C8166 is 97.5 µg/mL (≈ 236 µM); in data set [9], 18600 nM. In data set [2], the selectivity ratio came to 5.3.
For `COC(=O)C(N)(c1c[nH]c2ccc(F)cc12)C(F)(F)F` (configuration not stated), in the data set with TZM [10], the CC50 turned out to be 49300 nM. The compound further gave a concentration giving a half-maximal response (EC50) in data set [11] of 45 nM.
For `CC(C)(C)OC(=O)n1ccc2ccc(-c3ccc4ccn(Cc5cccc(C(=O)O)c5)c4c3)cc21`, the midpoint of inhibition in [12], the IC50, lay at 800 nM.
Still for that read-out and setting: with `O=c1[nH]c(=O)n([C@H]2C[C@H](O)[C@@H](CO)O2)cc1CCCOc1ccc(OCc2ccccc2)cc1` the figure was 2180 nM.
On to `CC(C)(NC(=O)OCc1ccccc1)c1cc(O)c(O)c(C(=O)NCc2ccccc2Cl)c1`, for which the response in data set [12] was half-maximal at 140 nM (EC50). This counts as sub-micromolar.
`O=C1OC(c2ccccc2Cl)C(Cl)c2ccccc21` (configuration not stated) registered a cytotoxic concentration (CC50) in the data set on TZM [10] of 136000 nM. In addition, the selectivity ratio in data set [13] came out at 11.1. In addition, the half-maximal effective concentration (EC50) in data set [14] came out at 12300 nM.
Regarding `CCOC(=O)C(N)(c1c[nH]c2cccc(C(=O)OC)c12)C(F)(F)F` (configuration not stated), the cytotoxic concentration (CC50) with TZM [10] came to 110000 nM. This compound also yielded an EC50 in [11] of 60 nM.
In turn, `N#Cc1ccc(Nc2nccc(Oc3ccccc3F)n2)cc1` showed an EC50 in data set [15] of 5.8 nM.
Compound `COc1ccc(CNC(=O)c2cc(C(C)(C)NC(=O)OCc3ccccc3)cc(O)c2O)cc1` came in with a concentration for a half-maximal effect (EC50) in data set [12] of 150 nM.
Regarding `NC1=CNC(=O)/C1=N/Nc1ccc(Br)cc1`, the Activity with TZM [16] is given as 40%. Moreover, the inhibition at 50 µg/mL in data set [17] stood at 98%.
Regarding `O=C(CSC1[Se]N=NC1c1ccc(Cl)c(Cl)c1)Nc1ccccc1Br` (configuration not stated), the EC50 in data set [18] and in [19] was above 23600 nM in each case.
In the case of `O=c1[nH]c(=O)n([C@H]2C[C@H](O)[C@@H](CO)O2)cc1C#CCOc1ccc(OCc2ccccc2)cc1`, in data set [12], half-maximal inhibition (IC50) was put at 6680 nM.

(Values after ChEMBL document CHEMBL4402520, “Synthetic routes and structure-activity relationships (SAR) of anti-HIV agents: A key review” (Eur J Med Chem, 2019).)
